Consider 3 compounds from patent US11154479B1, “Methods of removing color from color-treated hair” (L'Oreal, priority 2020, dated 2021).

Like-named read-outs stand apart in the source and are kept apart here.

Data set [1] can be described thus: Octanol/water partition coefficient (Log Pow) of direct dyes. The settings on record: octanol/water partition coefficient of the dye. In kind it is physicochemical. The source says: Pow is the octanol/water partition coefficient, which can be defined as the ratio of the concentration of a solute, such as the direct dye in the present disclosure, in a water-saturated octanolic phase to its concentration in an octanol-saturated aqueous phase. The octanol/water partition coefficient is typically expressed in Logarithmic form.
There are several existing experimental methods by the Organisation for Economic Co-operation and Development (OECD) and Quantitative Structure-Property Relationship (QSPR) models available for Log Pow measurement or prediction. The experimental methods include: the ‘slow-stirring’ method (OECD Test No. 123), the high-performance liquid chromatography (HPLC) method (OECD Test No. 117), and shake flask methods (referred to in OECD Test No. 107).
Thus, partition coefficient of a dye may be calculated as follows: Log Pow=Log [(dye concentration in octanol)/(dye concentration in water)].
The Log Pow value of a direct dye can be positive, negative or neutral. The Log Pow values for some dyes follows in the below table.

Data set [2] can be described thus: Removal of HC Blue 15 from dyed hair swatches by organic salt solutions (ΔE, CIE L*a*b*). The settings on record: HC Blue 15 dyed hair; for ΔE: soaked 30 minutes at 40° C., shampooed once. On the procedure: (§1) Unless otherwise indicated, hair swatches were all treated using the same protocol. Specifically, 2 g dyed hair swatches are soaked in 80 g treatment solution in water for 30 minutes at 40° C., then the treated hair swatches are then shampooed/washed once (rinsing step) and blow-dried for evaluation.
(§2) Unless otherwise indicated, color removal performance is measured using CIE L* a* b* coordinates. ΔE is used to describe the color difference and is defined by the following equation: ΔE*ab=√{square root over ((L*2−L*1)^2+(a*2−a*1)^2+(b*2−b*1)^2)} where, L1*, a1; b1 are measured on freshly dyed hair L2*, a2, b2 are measured on the dyed hair treated by color remover systems. The higher ΔE values, the more efficient the color removal.
Hair swatches dyed with HC Blue 15 were treated with the organic salts at varying concentrations using the protocol described above.

Data set [3] can be described thus: Removal of Basic Red 51 from dyed hair swatches by organic salt solutions (ΔE). Conditions: 10% organic salt in water; Basic Red 51 dyed hair; soaked 30 minutes at 40° C.; water control 5.3. On the procedure:
as §1, §2
Hair swatches dyed with Basic Red 51 were treated with BMIM octylsulfate and TBuMA Cl, each at 10% concentration using the protocol described above. Basic Red 51 contains a quaternary moiety and has the structure below.

The conditions of data set [4]: 10% organic salt in water; hydroxyanthraquinoneaminopropyl methyl morpholinium methosulfate dyed hair; 30 minutes at 40° C.; water control 2.9.

With `COS(=O)(=O)[O-].C[N+]1(CCCNc2ccc(O)c3c2C(=O)c2ccccc2C3=O)CCOCC1` [Hydroxyanthraquinoneaminopropyl methyl morpholinium methosulfate], the “Log Pow” value in data set [1] was “around 2.89”.

On to `CCCC[N+](C)(CCCC)CCCC.[Cl-]` [TBuMA Cl, tributylmethyl ammonium chloride], for which the ΔE in data set [2] (25% organic salt in water) is 32.8; in data set [3] it was 23.1.

Take “butyl-3-methylimidazolium octyl sulfate [BMIM octyl sulfate]”: the ΔE in data set [4] is on record as 39.1; in data set [2] (1% organic salt in water) it was 1.3; in data set [2] (5% organic salt in water), 18.4; in data set [2] (10% organic salt in water), 32.2; in data set [3], 22.2. Further, in data set [2], the “Concentration of organic salt from which the ΔE value increased significantly” value is listed as “about 5%”.
